These results are taken from US12343350B2, “Istaroxime-containing intravenous formulation for the treatment of acute heart failure (AHF)” (Windtree Therapeutics, Inc., priority 2019, dated 2025).

Series [1] has as its target T1, SERCA2a (Canis lupus familiaris (Dog) (Canis familiaris), UniProt O46674). Description: SERCA2a ATPase activity in SR preparations from failing dog. The class given is biochemical. The note with it: data not shown. How it is done: Male beagle dogs were used for obtaining cardiac tissues for SERCA2a-enriched sarcoplasmic reticulum preparations. Healthy dogs were utilized for obtaining the data in Table 3. Chronic heart failure was induced in dogs by multiple intracoronary microembolizations with polystyrene latex microspheres ([…], Polysciences, Warrington, PA, USA) as described previously (see Sabbah H N et al., Am J Physiol. 1991; 260:H1379-84). The experiments were conducted in the General Pharmacology Department of Sigma-Tau, Rome, Italy. […]
SERCA2a activity was measured in vitro as ^32P-ATP hydrolysis at different Ca2^+ concentrations (100 to 3000 nM) in the absence and presence of the tested compounds as described previously (see Micheletti R. et al., Am J Card 2007; 99:24A-32A). […] The ATP hydrolysis was continued for 15 min at 37° C. and was stopped by acidification with 100 μl of 20% v/v ice-cold perchloric acid. ^32P was separated by centrifugation with activated charcoal (Norit A, SERVA) and the radioactivity was measured. […]
Dose-response curves were fitted by using a sigmoidal curve fitting software and the maximal velocity (Vmax) activity and the Kd Ca2^+ were calculated (Synergy Software KaleidaGraph 3.6). […]

A short description of series [2]: Acute toxicity (LD50) in mouse. It is filed as in vivo. The note with it: Albino Swiss CD-1, in vivo, single administration. On the procedure: Acute toxicity has been determined in the mouse (Albino Swiss CD-1, body weight 30 g). Mice were orally treated, or intravenously injected, with single administration of increasing doses of the test substance to identify the dose causing 50% mortality. Mortality occurred within 30 min after the administration and survival after 24 h. The acute toxicity (LD50) was then assessed.
The acute toxicity of the tested compound PST 3093 was determined in the mouse (Albino Swiss CD-1, body weight 30 g). Compound PST 3093 was orally administered or intravenously injected at increasing doses to identify the dose causing 50% mortality. Mortality occurred within 30 min after the administration and survival after 24 h.

The target of a further series is dog renal Na,K-ATPase (Canis lupus familiaris (Dog) (Canis familiaris), UniProt P50997). Description: Inhibition of dog renal Na,K-ATPase activity (32P-ATP). The class given is biochemical. On the procedure:
Kidneys were sliced and the outer medulla was dissected, pooled and suspended (1 g/10 ml) in a sucrose-histidine solution, containing 250 mM sucrose, 30 mM histidine and 5 mM EDTA, pH 7.2 and homogenized. The homogenate was centrifuged at 6.000 g for 15 min, the supernatant was decanted and centrifuged at 48.000 g for 30 min. The pellet was suspended in the sucrose-histidine buffer and incubated for 20 min with a sodium-dodecyl-sulphate (SDS) solution dissolved in a gradient buffer, containing 25 mM imidazole and 1 mM EDTA, pH 7.5. […] The pellet was suspended in the gradient buffer.
Increasing concentrations of the standard ouabain, or tested compound, were incubated with 0.3 μg of purified dog kidney enzyme for 10 min at 37° C. in 120 μl final volume of a medium containing 140 mM NaCl, 3 mM MgCl2, 50 mM Hepes-Tris, 3 mM ATP at a pH 7.5. Then, 10 μl of incubation solution containing 10 mM KCl and 20 nCi of ^32P-ATP (3-10 Ci/mmol, Perkin Elmer) was added, and the reaction was continued for 15 min at 37° C. The reaction was then stopped by acidification with 20% v/v ice-cold perchloric acid. ^32P was separated by centrifugation with activated Charcoal (Norit A, Serva) and the radioactivity was measured. The inhibitory activity was expressed as percent of the control samples carried out in the absence of ouabain or tested compound.

The nature of series [3]: Plasma levels of istaroxime and its metabolites in patients (HPLC-MS/MS). The note with it: for plasma concentration course during the infusion period: 24 h infusion of 0.5 or 1 μg/kg/min istaroxime, Caucasian and Chinese patients. The class given is in vivo, human. How it is done: The quantitative determination of PST 2744 and its metabolite PST 2915 in human plasma was determined by the HPLC-MS/MS method that included a mobile phase of 70:30 acetonitrile/water, 1 mL/L 1M formic acid, and 1 mL/L 5M ammonium acetate. The flow rate was 1 mL/min, and the chromatographic separation was by reversed phase HPLC (Column: SYNERGI 4μ POLAR-RP80A 150×4.6 mm equipped with a Security-guard Phenomenex Polar-RP 4×3 mm). Detection was performed by MS/MS, and the acquisition mode was Multiple Reaction Monitoring (MRM).
The quantitative determination of istaroxime metabolies PST 2922 and PST 3093 in human plasma was also measured by the HPLC-MS/MS method. In this case, the mobile phase was 50:50 H2 O/CH3 CN (v/v) and 500 μL/L 98-100% HCOOH. The flow rate was 1 mL/min and chromatographic separation was done by reversed-phase HPLC (Column: Phenomenex Phenyl hexyl, 150×4.6 mm, equipped with a Phenomenex phenyl propyl guard-cartridge) under isocratic conditions. Detection was performed by MS/MS (376.0→282.0 amu for PST2922, 378.0→284.0 amu for PST 3093 and 362.0→268.0 amu for PST 3418, IS).

Series [4] has as its target T1, SERCA2a. Description: SERCA2a ATPase activity in heart-derived SR microsomes from normal dog. The note with it: for % increase vs control (Vmax) / Vmax: normal dog SR microsomes; for Vmax: mean ± SD. It is filed as biochemical. On the procedure:
Male beagle dogs were used for obtaining cardiac tissues for SERCA2a-enriched sarcoplasmic reticulum preparations. Healthy dogs were utilized for obtaining the data in Table 3. Chronic heart failure was induced in dogs by multiple intracoronary microembolizations with polystyrene latex microspheres ([…], Polysciences, Warrington, PA, USA) as described previously (see Sabbah H N et al., Am J Physiol. 1991; 260:H1379-84). The experiments were conducted in the General Pharmacology Department of Sigma-Tau, Rome, Italy.
Left ventricle tissues were dissected, homogenized in 4 volumes of 10 mM NaHCO3 (pH 7), 1 mM PMSF, 10 μg/ml Aprotinin and Leupeptin and centrifuged at 12.000 g for 15 minutes, as described in Nediani C. et al. (J Biol Chem. 1996; 271:19066-73). Supernatants were filtered and centrifuged at 100.000 g for 30 min. Contractile proteins were extracted by suspending the pellets with 0.6 M KCl, 30 mM Histidine, pH 7 and further centrifugation at 100.000 g for 30 min. Final pellets were reconstituted with 0.3 M Sucrose, 30 mM Histidine, pH 7.
SERCA2a activity was measured in vitro as ^32P-ATP hydrolysis at different Ca2^+ concentrations (100 to 3000 nM) in the absence and presence of the tested compounds as described previously (see Micheletti R. et al., Am J Card 2007; 99:24A-32A). Increasing concentrations of each compound (from 0.05 to 300 nM) were pre-incubated with 2 μg of microsomes for 5 min at 4° C. in 80 μl of a solution containing 100 mM KCl, 5 mM MgCl2, 1 μM A23187, 20 mM Tris, pH 7.5. Then, 20 μl of 5 mM Tris-ATP containing 50 nCi of ^32P-ATP (3-10 Ci/mmol, Perkin Elmer) was added. The ATP hydrolysis was continued for 15 min at 37° C. and was stopped by acidification with 100 μl of 20% v/v ice-cold perchloric acid. ^32P was separated by centrifugation with activated charcoal (Norit A, SERVA) and the radioactivity was measured. SERCA2a-dependent activity was identified as the portion of total hydrolytic activity inhibited by 10 μM cyclopiazonic acid (see Seidler N W. et al., J Biol Chem. 1989; 264:17816-23).
Dose-response curves were fitted by using a sigmoidal curve fitting software and the maximal velocity (Vmax) activity and the Kd Ca2^+ were calculated (Synergy Software KaleidaGraph 3.6).
The compounds disclosed herein were tested on SERCA2a ATPase activity prepared from normal and failing dogs in a range of concentrations from […]. The effect has been expressed as % increase of the Vmax activity of a control sample run in the absence of compound. Data are mean & SD, where n indicates the number of experiments.

Where two headings read alike, the source gives them in different places. Marks after values point to notes of the source that are not given here.

T1 sequence (O46674 whole entry): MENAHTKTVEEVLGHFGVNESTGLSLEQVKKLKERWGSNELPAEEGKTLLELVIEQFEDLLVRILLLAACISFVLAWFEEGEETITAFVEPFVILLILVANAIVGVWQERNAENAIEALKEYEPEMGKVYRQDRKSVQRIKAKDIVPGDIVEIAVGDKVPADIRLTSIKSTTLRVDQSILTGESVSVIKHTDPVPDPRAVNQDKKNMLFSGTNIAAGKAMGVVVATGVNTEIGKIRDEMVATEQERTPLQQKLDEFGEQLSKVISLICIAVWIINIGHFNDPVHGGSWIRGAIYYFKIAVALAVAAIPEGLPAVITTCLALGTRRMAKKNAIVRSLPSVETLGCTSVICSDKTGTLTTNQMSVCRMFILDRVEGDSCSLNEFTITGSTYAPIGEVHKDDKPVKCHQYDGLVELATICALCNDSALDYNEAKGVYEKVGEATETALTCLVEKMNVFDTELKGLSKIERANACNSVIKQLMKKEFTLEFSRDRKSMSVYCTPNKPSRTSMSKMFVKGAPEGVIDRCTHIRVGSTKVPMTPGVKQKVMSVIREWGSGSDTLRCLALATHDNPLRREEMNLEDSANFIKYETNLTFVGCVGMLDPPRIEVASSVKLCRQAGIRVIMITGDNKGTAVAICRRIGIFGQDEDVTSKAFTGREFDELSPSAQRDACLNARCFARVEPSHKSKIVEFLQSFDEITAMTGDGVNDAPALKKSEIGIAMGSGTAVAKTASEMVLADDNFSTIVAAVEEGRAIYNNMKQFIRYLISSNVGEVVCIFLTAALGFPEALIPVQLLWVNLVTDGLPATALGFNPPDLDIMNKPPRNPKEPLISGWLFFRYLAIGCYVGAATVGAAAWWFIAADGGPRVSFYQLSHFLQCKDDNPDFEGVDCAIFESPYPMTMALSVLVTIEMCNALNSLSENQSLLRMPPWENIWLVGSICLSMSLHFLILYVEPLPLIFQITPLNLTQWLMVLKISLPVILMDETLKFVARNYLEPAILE

With `C[C@]12CCC(=NOCCN)C[C@@H]1C(=O)C[C@@H]1[C@@H]2CC[C@]2(C)C(=O)CC[C@@H]12` [Istaroxime, (3Z,5a)-3-[(2-aminoethoxy)imino]androstane-6,17-dione], the SERCA2a activation result at SERCA2a [1] is on record as “particularly evident”. The median lethal dose (LD50) (in general, the dose expected to kill half of the subjects tested) at 24 h in series [2] (iv) was 29 to 32 mg/kg; in series [2] (os (oral)) it was 200 mg/kg. Further, the IC50 (as a rule, the concentration at which inhibition is half-maximal) at dog renal Na,K-ATPase (purified dog kidney enzyme, 37° C., read-out: IC50, inhibition of dog renal Na,K-ATPase) was 140 nM. Also, the “plasma concentration course during the infusion period” value in series [3] is reported as “remain relatively constant”. In addition, the plasma levels entry in series [3] (at 48 hours) is given as “not detectable”. The plasmatic level result in series [3] (following time points, whole duration of the infusion) is “about 8 ng/ml”. Further, in series [3] (human, plasma, intravenous, at 3 hour time point of infusion, read-out: plasmatic level), the concentration at 3 h is roughly 10 ng/mL. In addition, the “% increase vs control (Vmax)” value is on record as 14* % at SERCA2a [4] (0.1 nM compound) and 20** % at SERCA2a [4] (10 nM compound). Moreover, the Vmax is 1.423 ± 0.123 μmol/min/mg prot at SERCA2a [4] (0.1 nM compound) and 1.505 ± 0.111 μmol/min/mg prot on SERCA2a [4] (10 nM compound). Also, the SERCA2a activity stimulation entry at SERCA2a [4] (normal dog SR vesicles, 0.1 nM and 10 nM) is listed as “significantly stimulated”.
Turning to `C[C@]12CCC(=NOCC(=O)O)CC1[C@H](O)CC1C2CC[C@]2(C)C(=O)CCC12` (stereo partly drawn) [PST 3093, (E,Z)-[(6-beta-hydroxy-17-oxoandrostan-3-ylidene)amino]oxyacetic acid], the LD50 at 24 h in series [2] (iv) was greater than 250 mg/kg; in series [2] (os (oral)), greater than 200 mg/kg. On dog renal Na,K-ATPase, this compound came in with an IC50 greater than 100000 nM. Further, the “plasma concentration course during the infusion period” value in series [3] is on record as “continue to accumulate”. The average plasma level entry in series [3] (at 48 hours, 1 μg/kg/min istaroxime infusion) is “about 21.2 ng/ml”; in series [3] (at 48 hours, Caucasian patients, 0.5 μg/kg/min istaroxime infusion), “about 25.02 ng/ml”; in series [3] (at 48 hours, Chinese patients, 0.5 μg/kg/min istaroxime infusion) it was “about 12.5 ng/ml”. For the same compound, the average plasma concentration result in series [3] (at 70 hours, or 46 hours post-infusion) is listed as “exceeding 10 ng/mL”; in series [3] (by the end of the 24 h istaroxime infusion period (0.5 or 1 μg/kg/min)), “exceeding 60 ng/mL”. Moreover, the figures for the “% increase vs control (Vmax)” value at SERCA2a [4] (0.1 nM compound) and at SERCA2a [4] (10 nM compound) were 25** % and 19** %, respectively.
